What was measured:
human subjects = settings: cited from earlier work
fat tissue = assay: Propylene glycol as co-solvent injected with polidocanol; type: in vivo
inguinal fat pad = assay: Inguinal fat pad mass after a single treatment of polidocanol; type: in vivo; settings: for reduction in inguinal fat pad mass: day 28 after a single treatment
Experimental: For example, reductions in inguinal fat pad mass of 15% were found at day 28 after a single treatment of polidocanol at doses of 0.5% and 1.25%. […] Thus, in embodiments, the polidocanol is administered approximately once per month and/or at concentrations less than about 2.0%. The treatment may employ about 0.1 to 0.3 mL (e.g. 0.2 mL) of a polidocanol at a concentration provided herein. In embodiments, the polidocanol is a concentration of from about 0.5% and 1.25%. The administration may be via injection. In embodiments, the injection is at a spacing of about 0.2 to 0.8 cm apart across the inguinal fat pad. Thus, in embodiments, the polidocanol is administered approximately once per month and/or at concentrations less than 2.0%. The treatment may employ 0.1 to 0.3 mL (e.g., 0.2 mL) of a polidocanol at a concentration provided herein. In embodiments, the polidocanol is a concentration of from 0.5% and 1.25%. The administration may be via injection. In embodiments, the injection is at a spacing of 0.2 to 0.8 cm apart across the inguinal fat pad. In embodiments, the injection is at a spacing of about 0.5 cm apart across the inguinal fat pad.

[1] = Kybella Label, spontaneous and elicited AEs, 1-week post-injection

In the case of `C[C@H](CCC(=O)O)[C@H]1CC[C@H]2[C@@H]3CC[C@@H]4C[C@H](O)CC[C@]4(C)[C@H]3C[C@H](O)[C@]12C` [Kybella, deoxycholic acid], the “AE Proportions Post Treatment: Anesthesia (Numbness)” value (human subjects; [1]) is listed as 66%, the “AE Proportions Post Treatment: Bruising” value (human subjects; [1]) is listed as 72% and the “AE Proportions Post Treatment: Edema/Swelling” value (human subjects; [1]) is listed as 87%. For the same molecule, the “AE Proportions Post Treatment: Erythema” value (human subjects; [1]) was 27%, the “AE Proportions Post Treatment: Induration” value (human subjects; [1]) was 23% and the “AE Proportions Post Treatment: Nerve Injury” value (human subjects; [1]) was 4%. For the same molecule, the “AE Proportions Post Treatment: Nodule” value (human subjects; [1]) was 13%, the “AE Proportions Post Treatment: Pain” value (human subjects; [1]) was 70% and the “AE Proportions Post Treatment: Paresthesia” value (human subjects; [1]) was 14%. For the same molecule, the “AE Proportions Post Treatment: Pruritis” value (human subjects; [1]) was 12%, the “Injection site adverse events lasting >30 days: Edema/Swelling” value (human subjects; Kybella Label) was 20% and the “Injection site adverse events lasting >30 days: Induration” value (human subjects; Kybella Label) was 13%. The “Injection site adverse events lasting >30 days: Injection Site Pain” value (human subjects; Kybella Label) was 16%, the “Injection site adverse events lasting >30 days: Numbness” value (human subjects; Kybella Label) was 42% and the “injection-site adverse events (swelling/edema, bruising, pain) per treatment session” value (human subjects; compared to placebo, FIGS. 9A and 9B) was “significantly higher percentage of subjects exhibited an adverse reaction”. The “of said subjects, injection related side effect which lasts for more than 30 days” value (human subjects; subcutaneous injection) was “up to 42%” and the “subjects exhibiting an injection related side effect” value (human subjects; subcutaneous injection) was no more than 87%.
With `CC(O)CO` (centres unmarked) [propylene glycol] the “irritation when injected with polidocanol” value (fat tissue) was “non-irritating” and the “patchy and incomplete fat tissue necrosis relative to the absence of co-solvent” value (fat tissue) was “reduced amount of patchy and incomplete fat tissue necrosis”.
For polidocanol, the “reduction in inguinal fat pad mass” value (inguinal fat pad; concentration 2.0%) was 10%, the “reduction in inguinal fat pad mass” value (inguinal fat pad; dose 0.5%) was 15% and the “reduction in inguinal fat pad mass” value (inguinal fat pad; dose 1.25%) was 15%. The “visible change of inguinal fat pad / body contour” value (inguinal fat pad; in vivo) was “externally visible reduction in inguinal fat pad fullness”.
